Measured values from the NIST ThermoML archive (doi:10.1016/j.jct.2014.12.006).
Numbers after ± are expanded uncertainties.

Assay: mn = molality of the nth substance listed, in mol/kg
Details: 298.15 K, 102 kPa, Liquid, Vibrating tube method

CCCCCCCCCCCCn1cc[n+](C)c1.[Br-] [1-dodecyl-3-methylimidazolium bromide] + O
Details | mass density [kg/m3]
m1 = 0.00525 | 997.226 ± 0.12
m1 = 0.00574 | 997.243 ± 0.12
m1 = 0.00615 | 997.258 ± 0.12
m1 = 0.007 | 997.288 ± 0.12
m1 = 0.00733 | 997.299 ± 0.12
m1 = 0.00816 | 997.329 ± 0.12
m1 = 0.00869 | 997.347 ± 0.12
m1 = 0.0092 | 997.365 ± 0.12
m1 = 0.01006 | 997.396 ± 0.12
m1 = 0.01063 | 997.412 ± 0.12
m1 = 0.01124 | 997.43 ± 0.12
m1 = 0.01196 | 997.451 ± 0.12
m1 = 0.01274 | 997.474 ± 0.12
m1 = 0.01356 | 997.498 ± 0.12
m1 = 0.01464 | 997.529 ± 0.12
m1 = 0.01526 | 997.545 ± 0.12
m1 = 0.01629 | 997.575 ± 0.12
m1 = 0.01707 | 997.595 ± 0.12

CCCCCCCCCCCC[N+](C)(C)CC[N+](C)(C)CCCCCCCCCCCC.[Br-].[Br-] [1,2-bis(dimethyldodecylammonium)ethane dibromide] + O
Details | mass density [kg/m3]
m1 = 0.0005 | 997.078 ± 0.12
m1 = 0.00056 | 997.083 ± 0.12
m1 = 0.00065 | 997.091 ± 0.12
m1 = 0.0007 | 997.095 ± 0.12
m1 = 0.00079 | 997.103 ± 0.12
m1 = 0.00089 | 997.112 ± 0.12
m1 = 0.00095 | 997.117 ± 0.12
m1 = 0.00104 | 997.124 ± 0.12
m1 = 0.00107 | 997.126 ± 0.12
m1 = 0.00119 | 997.136 ± 0.12
m1 = 0.0013 | 997.144 ± 0.12
m1 = 0.00142 | 997.153 ± 0.12
m1 = 0.00168 | 997.172 ± 0.12
